Assay results from ChEMBL document CHEMBL5584238, “Psammaplin A analogues with modified disulfide bond targeting histone deacetylases: Synthesis and biological evaluation” (Eur J Med Chem, 2024).
Active and inactive are the calls of the source. No cut-off for these calls is given here.

How the values were obtained:
HCT-116 = experiment: Antiproliferative activity against human HCT-116 cells incubated for 48 hrs by MTT assay; assay type: functional, cell-based; details: HCT-116, 48 h
EBC-1 = experiment: Antiproliferative activity against human EBC-1 cells incubated for 48 hrs by MTT assay; assay type: functional, cell-based; details: EBC-1, 48 h
NCI-H1581 = experiment: Antiproliferative activity against human NCI-H1581 cells incubated for 48 hrs by MTT assay; assay type: functional, cell-based; details: NCI-H1581, 48 h
[1] = biological target: Class 1 histone deacetylase (Homo sapiens) (UniProt Q13547+O15379+Q92769+Q9BY41); experiment: Inhibition of class 1 HDACs in human HCT-116 cells assessed as upregulation of acetylated alpha-H3 level at 1 uM incubated for 24 hrs by Western blotting analysis; assay type: cell-based
[2] = biological target: T1, Protein deacetylase HDAC6 (Homo sapiens) (UniProt Q9UBN7); experiment: Inhibition of HDAC6 in human HCT-116 cells assessed as upregulation of acetylated alpha-tubulin level at 1 uM incubated for 24 hrs by Western blotting analysis; assay type: cell-based
T1 sequence (whole entry): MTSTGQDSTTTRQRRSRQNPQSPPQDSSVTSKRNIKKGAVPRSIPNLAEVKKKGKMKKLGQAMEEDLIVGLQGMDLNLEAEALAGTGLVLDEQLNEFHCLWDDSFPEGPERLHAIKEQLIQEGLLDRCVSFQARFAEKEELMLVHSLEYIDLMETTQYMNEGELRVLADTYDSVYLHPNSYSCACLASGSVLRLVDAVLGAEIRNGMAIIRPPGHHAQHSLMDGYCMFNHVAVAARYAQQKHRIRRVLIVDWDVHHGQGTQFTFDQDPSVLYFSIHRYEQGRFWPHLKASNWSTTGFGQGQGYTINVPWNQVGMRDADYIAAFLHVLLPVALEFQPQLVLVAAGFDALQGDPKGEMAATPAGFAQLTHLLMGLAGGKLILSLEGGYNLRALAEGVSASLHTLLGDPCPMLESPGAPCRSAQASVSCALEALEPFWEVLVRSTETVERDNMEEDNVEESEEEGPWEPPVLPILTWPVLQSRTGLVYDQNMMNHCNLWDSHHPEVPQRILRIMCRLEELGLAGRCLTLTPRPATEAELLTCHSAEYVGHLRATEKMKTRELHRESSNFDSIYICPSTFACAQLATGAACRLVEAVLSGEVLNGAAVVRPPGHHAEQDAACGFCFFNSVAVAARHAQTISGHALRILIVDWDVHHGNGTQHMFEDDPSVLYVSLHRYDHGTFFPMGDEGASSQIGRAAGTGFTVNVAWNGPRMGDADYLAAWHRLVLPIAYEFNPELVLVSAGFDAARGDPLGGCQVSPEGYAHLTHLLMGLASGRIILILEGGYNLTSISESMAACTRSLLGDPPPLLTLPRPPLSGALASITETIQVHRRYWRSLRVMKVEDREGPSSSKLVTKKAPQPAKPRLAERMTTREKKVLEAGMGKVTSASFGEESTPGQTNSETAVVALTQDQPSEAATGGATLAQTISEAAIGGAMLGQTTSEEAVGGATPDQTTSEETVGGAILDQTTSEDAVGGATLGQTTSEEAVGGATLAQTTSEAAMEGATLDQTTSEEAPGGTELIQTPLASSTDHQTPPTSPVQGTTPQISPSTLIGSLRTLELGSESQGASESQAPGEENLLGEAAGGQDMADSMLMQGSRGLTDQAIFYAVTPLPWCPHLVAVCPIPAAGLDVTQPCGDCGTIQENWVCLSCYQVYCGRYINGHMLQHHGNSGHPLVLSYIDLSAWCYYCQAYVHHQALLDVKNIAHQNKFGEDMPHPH

Histone deacetylase 1 = Histone deacetylase 1 (Homo sapiens, UniProt Q13547); experiment: Inhibition of recombinant human HDAC1 using Boc-Lys(Ac)-AMC as substrate preincubated for 1 hr followed by substrate addition and measured after 2 hrs by microplate reader assay
[3] = biological target: T2, Protein deacetylase HDAC6 (Homo sapiens, UniProt Q9UBN7); experiment: Inhibition of recombinant human HDAC6 using Boc-Lys(Ac)-AMC as substrate preincubated for 1 hr followed by substrate addition and measured after 2 hrs by microplate reader assay
T2 sequence (Q9UBN7 whole entry): T1 sequence (whole entry)

Class 1 histone deacetylase (Homo sapiens), sequence (O15379 whole entry, looked up): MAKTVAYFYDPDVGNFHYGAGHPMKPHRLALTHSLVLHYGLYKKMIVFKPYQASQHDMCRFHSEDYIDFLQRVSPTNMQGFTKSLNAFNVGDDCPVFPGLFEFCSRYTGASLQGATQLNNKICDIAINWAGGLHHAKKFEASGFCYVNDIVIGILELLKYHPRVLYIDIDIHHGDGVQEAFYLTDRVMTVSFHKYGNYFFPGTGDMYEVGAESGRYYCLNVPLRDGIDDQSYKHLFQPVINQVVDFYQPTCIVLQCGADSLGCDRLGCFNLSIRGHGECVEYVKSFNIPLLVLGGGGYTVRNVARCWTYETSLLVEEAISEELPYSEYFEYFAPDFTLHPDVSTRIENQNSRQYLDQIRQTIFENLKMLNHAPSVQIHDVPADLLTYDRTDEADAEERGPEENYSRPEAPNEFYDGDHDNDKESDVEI
Class 1 histone deacetylase (Homo sapiens), sequence (Q13547 whole entry, looked up): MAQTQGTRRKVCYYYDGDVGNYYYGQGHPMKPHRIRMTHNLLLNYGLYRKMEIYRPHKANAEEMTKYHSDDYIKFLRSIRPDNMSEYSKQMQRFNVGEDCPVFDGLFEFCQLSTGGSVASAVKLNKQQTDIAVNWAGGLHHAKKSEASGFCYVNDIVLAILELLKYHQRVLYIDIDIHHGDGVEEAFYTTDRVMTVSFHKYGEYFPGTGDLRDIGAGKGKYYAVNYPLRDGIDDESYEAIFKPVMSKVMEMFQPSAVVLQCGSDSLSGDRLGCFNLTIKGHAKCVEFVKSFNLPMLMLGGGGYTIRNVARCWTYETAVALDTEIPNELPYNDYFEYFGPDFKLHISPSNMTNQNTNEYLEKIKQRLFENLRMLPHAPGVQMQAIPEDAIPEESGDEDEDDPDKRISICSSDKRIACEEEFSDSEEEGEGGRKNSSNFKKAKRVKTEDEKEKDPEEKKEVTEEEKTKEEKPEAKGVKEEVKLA
Class 1 histone deacetylase (Homo sapiens), sequence (Q92769 whole entry, looked up): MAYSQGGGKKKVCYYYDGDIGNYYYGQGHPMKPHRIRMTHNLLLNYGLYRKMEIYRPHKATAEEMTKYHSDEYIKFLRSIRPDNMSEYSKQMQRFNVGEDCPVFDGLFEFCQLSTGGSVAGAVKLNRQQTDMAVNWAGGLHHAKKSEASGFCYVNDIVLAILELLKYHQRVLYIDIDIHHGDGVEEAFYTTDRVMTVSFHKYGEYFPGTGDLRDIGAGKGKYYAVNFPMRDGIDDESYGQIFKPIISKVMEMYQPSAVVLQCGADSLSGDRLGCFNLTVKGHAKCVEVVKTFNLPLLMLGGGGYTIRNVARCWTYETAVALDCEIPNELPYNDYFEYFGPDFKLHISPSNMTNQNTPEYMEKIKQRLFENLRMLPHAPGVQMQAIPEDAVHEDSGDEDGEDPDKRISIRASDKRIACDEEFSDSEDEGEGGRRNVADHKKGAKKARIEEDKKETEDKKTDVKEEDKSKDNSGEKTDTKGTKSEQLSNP
Class 1 histone deacetylase (Homo sapiens), sequence (Q9BY41 whole entry, looked up): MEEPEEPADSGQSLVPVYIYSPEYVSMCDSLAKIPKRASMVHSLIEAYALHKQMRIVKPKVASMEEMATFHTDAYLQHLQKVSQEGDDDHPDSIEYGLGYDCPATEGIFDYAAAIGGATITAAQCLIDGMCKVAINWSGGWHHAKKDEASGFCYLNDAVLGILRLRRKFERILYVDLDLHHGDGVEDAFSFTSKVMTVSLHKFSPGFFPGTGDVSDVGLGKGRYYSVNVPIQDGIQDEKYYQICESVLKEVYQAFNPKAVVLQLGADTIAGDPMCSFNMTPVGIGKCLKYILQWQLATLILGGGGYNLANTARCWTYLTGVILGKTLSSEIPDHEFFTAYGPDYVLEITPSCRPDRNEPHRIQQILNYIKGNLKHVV
Histone deacetylase 1, sequence (Q13547 whole entry): as the sequence (Q13547 whole entry, looked up) above

Compound | IC50 (HCT-116) [µM] | IC50 (EBC-1) [µM] | IC50 (NCI-H1581) [µM] | inhibition [1] | inhibition [2] | IC50 (Histone deacetylase 1) [µM] | IC50 [3] [µM]
O=C(NC1CCS[Se]C1)/C(Cc1ccc(O)cc1)=N/O (configuration not stated) | > 10 | > 10 | 2.24 |  |  |  | 
O=C(NCCSSCCNC(=O)/C(Cc1ccc(Cl)s1)=N/O)/C(Cc1ccc(Cl)s1)=N/O | 5.48 | > 10 | 4.02 |  |  |  | 
O=C(NC1CCS[Se]C1)/C(Cc1ccc(Cl)s1)=N/O (configuration not stated) | > 10 | > 10 | 2.46 |  |  |  | 
O=C(NCCSSCCNC(=O)/C(Cc1ccco1)=N/O)/C(Cc1ccco1)=N/O | > 10 | > 10 | > 10 |  |  |  | 
O=C(NCC[Se][Se]CCNC(=O)/C(Cc1ccc(Br)s1)=N/O)/C(Cc1ccc(Br)s1)=N/O | 0.41 | 0.72 | 0.3 | Active | Active | 0.57 | 3.6
O=C(NC1CC[Se]SC1)/C(Cc1ccc(Br)s1)=N/O (configuration not stated) | > 10 | > 10 | 1.44 |  |  |  | 
O=C(NCCSSCCNC(=O)/C(Cc1ccc(Br)o1)=N/O)/C(Cc1ccc(Br)o1)=N/O | 1.74 | > 10 | > 10 |  |  |  | 
O=C(NC1CS[Se]C1)/C(Cc1ccc(O)c(Br)c1)=N/O (configuration not stated) | 1.53 | 3.31 | 0.93 |  |  |  | 
O=C(NC1CS[Se]C1)/C(Cc1ccc(O)cc1)=N/O (configuration not stated) | 3.3 | 3.47 | 0.84 |  |  |  | 
O=C(NC1CCSSC1)/C(Cc1cccc(F)c1)=N/O (configuration not stated) | > 10 | > 10 | > 10 |  |  |  | 
O=C(NC1CC[Se]SC1)/C(Cc1ccc(O)cc1)=N/O (configuration not stated) | > 10 | > 10 | 1.28 |  |  |  | 
O=C(NC1CCS[Se]C1)/C(Cc1ccc(Br)s1)=N/O (configuration not stated) | > 10 | > 10 | 3.6 |  |  |  | 
O=C(NC1CSSC1)/C(Cc1ccc(O)c(Br)c1)=N/O | 6.02 | > 10 | > 10 |  |  |  | 
N#Cc1ccc(COc2ccc(C/C(=N\O)C(=O)NC3CSSC3)cc2)cc1 | > 10 | > 10 | > 10 |  |  |  | 
O=C(NC1CCSSC1)/C(Cc1ccc(O)cc1)=N/O (configuration not stated) | > 10 | > 10 | > 10 |  |  |  | 
O=C(NCCSSCCNC(=O)/C(Cc1ccc[nH]1)=N/O)/C(Cc1ccc[nH]1)=N/O | > 10 | > 10 | > 10 |  |  |  | 
O=C(NC1CC[Se][Se]C1)/C(Cc1ccc(O)cc1)=N/O (configuration not stated) | > 10 | > 10 | > 10 |  |  |  | 
CC(C)(CNC(=O)/C(Cc1ccc(O)c(Br)c1)=N/O)SSC(C)(C)CNC(=O)/C(Cc1ccc(O)c(Br)c1)=N/O | 5.53 | > 10 | > 10 |  |  |  | 

Compound | IC50 (HCT-116) [µM] | IC50 (EBC-1) [µM] | IC50 (NCI-H1581) [µM] | inhibition [1] | inhibition [2] | IC50 (Histone deacetylase 1) [µM] | IC50 [3] [µM]
O=C(NC1CSSC1)/C(Cc1cccc(F)c1)=N/O | > 10 | > 10 | > 10 |  |  |  | 
O=C(NCCSSCCNC(=O)/C(Cc1ccc(Br)s1)=N/O)/C(Cc1ccc(Br)s1)=N/O | 2.22 | > 10 | 4.17 |  |  |  | 
O=C(NC1C[Se][Se]C1)/C(Cc1ccc(O)cc1)=N/O | > 10 | > 10 | > 10 |  |  |  | 
O=C(NC1CC[Se][Se]C1)/C(Cc1ccc(O)c(Br)c1)=N/O (configuration not stated) | > 10 | > 10 | > 10 |  |  |  | 
O=C(NC1CC[Se][Se]C1)/C(Cc1cccc(F)c1)=N/O (configuration not stated) | > 10 | > 10 | > 10 |  |  |  | 
O=C(NC1CCSSC1)/C(Cc1ccc(O)c(Br)c1)=N/O (configuration not stated) | > 10 | > 10 | > 10 |  |  |  | 
Cc1ccc(C/C(=N\O)C(=O)NCCSSCCNC(=O)/C(Cc2ccc(C)o2)=N/O)o1 | 6.9 | > 10 | > 10 |  |  |  | 
O=C(NCCSSCCNC(=O)/C(Cc1ccc(O)cc1)=N/O)/C(Cc1ccc(O)cc1)=N/O | 6.57 |  |  |  |  |  | 
O=C(NC1CSSC1)/C(Cc1ccc(O)cc1)=N/O | 9.67 | > 10 | > 10 |  |  |  | 
O=C(NCC[Se][Se]CCNC(=O)/C(Cc1ccc(Cl)s1)=N/O)/C(Cc1ccc(Cl)s1)=N/O | 0.5 | 1.36 | 0.28 |  |  |  | 
O=C(NC1C[Se][Se]C1)/C(Cc1ccc(O)c(Br)c1)=N/O | > 10 | > 10 | > 10 |  |  |  | 
O=C(NCC[Se][Se]CCNC(=O)/C(Cc1cccs1)=N/O)/C(Cc1cccs1)=N/O | 0.19 | 1.13 | 0.16 |  |  |  | 
O=C(NC1CC[Se]SC1)/C(Cc1ccc(Cl)s1)=N/O (configuration not stated) | > 10 | > 10 | 1.1 |  |  |  | 
O=C(NCCSSCCNC(=O)/C(Cc1cccs1)=N/O)/C(Cc1cccs1)=N/O | 4.94 | > 10 | 6.16 |  |  |  | 
CC(C)(CNC(=O)/C(Cc1ccc(O)c(Br)c1)=N/O)SSCCNC(=O)/C(Cc1ccc(O)c(Br)c1)=N/O | 3.52 | > 10 | 3.75 |  |  |  | 
O=C(NCC[Se][Se]CCNC(=O)/C(Cc1ccco1)=N/O)/C(Cc1ccco1)=N/O | 0.41 | 0.45 | 0.3 |  |  |  | 
O=C(NCCSSCCNC(=O)/C(Cc1ccsc1)=N/O)/C(Cc1ccsc1)=N/O | 8.97 | > 10 | > 10 |  |  |  | 
